Measured values: article PMC6458069 (Molecular microbiology, 2019)
Numbering of substitutions follows the chain as printed. Values after ≈ are worked out from the molar mass of the structure shown. Read-outs that look alike come from different tables or passages of the source.

Legend:
[1] = target: human protein disulfide isomerase (PDI) (Homo sapiens, UniProt P07237); assay: PDI insulin reduction assay; assay type: biochemical
[2] = tested on: MtVKOR expressed in E. coli; assay type: cell-based, M. tuberculosis
MtVKOR = MtVKOR (Mycobacterium tuberculosis, UniProt I6X5W1); assay: In vitro ubiquinone reduction assay with purified MtVKOR; assay type: biochemical, M. tuberculosis
M. tuberculosis H37Rv = M. tuberculosis H37Rv growth inhibition; conditions: alamar blue assay, ±SD
[3] = target: T1, RnVKOR expressed in E. coli (Rattus norvegicus, UniProt Q6TEK4, DEL31-33); assay: Agar β-Gal^dbs assay, E. coli expressing RnVKOR; assay type: cell-based; conditions: FSH250 strain (Figure 4)
T1 sequence (Q6TEK4 with tags, fused parts or gaps DEL31-33): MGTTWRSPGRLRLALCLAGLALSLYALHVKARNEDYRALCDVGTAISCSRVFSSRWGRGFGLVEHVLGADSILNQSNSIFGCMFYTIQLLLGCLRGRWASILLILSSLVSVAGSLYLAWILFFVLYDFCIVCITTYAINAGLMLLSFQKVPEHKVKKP

PaDsbB2 = target: T2, PaDsbB2 (Pseudomonas aeruginosa, UniProt Q02EA7, C17A/C53A); assay: In vitro ubiquinone reduction assay with purified PaDsbB2; assay type: biochemical, P. aeruginosa
T2 sequence (Q02EA7 1-163 C17A/C53A): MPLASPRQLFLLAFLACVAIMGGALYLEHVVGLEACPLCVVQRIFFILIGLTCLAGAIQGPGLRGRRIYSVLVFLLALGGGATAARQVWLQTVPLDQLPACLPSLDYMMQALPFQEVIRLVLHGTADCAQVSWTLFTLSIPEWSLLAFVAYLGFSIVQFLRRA

PaDsbB1 = target: T3, PaDsbB1 (Pseudomonas aeruginosa, UniProt Q02TM7, C154Y); assay: In vitro ubiquinone reduction assay with purified PaDsbB1; assay type: biochemical, P. aeruginosa
T3 sequence (Q02TM7 1-169 C154Y): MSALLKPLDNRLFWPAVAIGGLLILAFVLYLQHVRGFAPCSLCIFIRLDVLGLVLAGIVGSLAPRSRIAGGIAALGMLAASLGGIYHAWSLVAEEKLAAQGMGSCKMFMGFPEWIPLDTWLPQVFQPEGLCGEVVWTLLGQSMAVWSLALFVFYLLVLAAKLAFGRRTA

[4] = tested on: elastase (LasB) activity of P. aeruginosa wild type; assay: Elastase in vivo assay, wild type P. aeruginosa; assay type: cell-based; conditions: Pseudomonas aeruginosa, 15 h, read-out: Elastase in vivo assay IC50, WT
EcDsbB = target: T4, EcDsbB (Escherichia coli, UniProt P0A6M2, C49V/C8A); assay: In vitro ubiquinone reduction assay with purified EcDsbB; assay type: biochemical, E. coli
T4 sequence (P0A6M2 1-176 C8A/C49V): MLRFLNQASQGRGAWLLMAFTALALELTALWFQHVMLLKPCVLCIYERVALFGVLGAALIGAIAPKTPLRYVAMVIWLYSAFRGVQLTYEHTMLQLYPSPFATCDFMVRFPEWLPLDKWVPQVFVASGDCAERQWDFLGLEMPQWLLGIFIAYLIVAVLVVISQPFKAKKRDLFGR

PaDsbB1 (ΔdsbB2) = target: T5, PaDsbB1 (ΔdsbB2) (Pseudomonas aeruginosa, UniProt Q02TM7); assay: Elastase in vivo assay, ΔdsbB2 mutant; assay type: cell-based, P. aeruginosa
T5 sequence (Q02TM7 1-169): T3 sequence (Q02TM7 1-169 C154Y) with Y154C

[5] = target: T6, PaDsbB1 expressed in E. coli (Pseudomonas aeruginosa, UniProt Q02TM7); assay type: cell-based, P. aeruginosa; conditions: agar plates, HTS control
T6 sequence (Q02TM7 1-169): T3 sequence (Q02TM7 1-169 C154Y) with Y154C

[6] = tested on: M. tuberculosis JR1740 strain; assay type: cell-based; conditions: JR1740 ± ATc
[7] = read-out: PDI IC50, insulin reduction assay, Table 2, 95% CI in parenthesis
[8] = read-out: In vitro assay MtVKOR Ki, 1–100 μM Ubiquinone-1, ±SD

human protein disulfide isomerase (PDI), sequence (P07237 18-508): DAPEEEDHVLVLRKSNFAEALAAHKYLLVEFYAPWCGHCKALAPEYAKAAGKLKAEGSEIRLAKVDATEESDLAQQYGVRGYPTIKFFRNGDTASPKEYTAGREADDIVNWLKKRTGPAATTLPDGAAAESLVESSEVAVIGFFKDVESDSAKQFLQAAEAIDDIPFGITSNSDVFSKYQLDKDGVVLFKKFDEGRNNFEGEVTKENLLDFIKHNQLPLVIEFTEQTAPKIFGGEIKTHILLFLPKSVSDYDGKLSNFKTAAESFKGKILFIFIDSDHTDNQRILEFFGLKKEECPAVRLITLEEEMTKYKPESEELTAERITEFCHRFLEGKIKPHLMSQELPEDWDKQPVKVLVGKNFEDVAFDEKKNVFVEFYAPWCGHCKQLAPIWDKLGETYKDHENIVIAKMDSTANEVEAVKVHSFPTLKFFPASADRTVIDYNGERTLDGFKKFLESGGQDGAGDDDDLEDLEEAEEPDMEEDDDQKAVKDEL

SMILES	IC50 [1, 7]	In vivo assay (MIC) (M. tuberculosis H37Rv)	Inhibition of RnVKOR expressed in E. coli [3]	IC50 (PaDsbB2)	IC50 (PaDsbB1)	IC50 [1]	Inhibition of PDI activity (in words) ([1]; insulin reduction assay)	IC50 [4]	IC50 (EcDsbB)	Ki (EcDsbB)	IC50 (PaDsbB1 (ΔdsbB2))	MIC in VKOR knockdown (induced) versus non-induced strain (in words) [6]	also measured
Nc1ncn([C@@H]2O[C@H](CO)[C@@H](O)[C@H]2O)c(=O)n1 [MT9]	> 100 µM	>979 ± 0 µM	–	–	–	–	–	–	–	–	–	–	MIC against MtVKOR when expressed in E. coli (Figure 3) [2]: 0.44 µM (≈ 0.107 µg/mL); Ki (MtVKOR; [8]): 2 ± 0.05 µM
NC(=O)c1nc(Cl)c(Cl)c(Cl)c1Cl [PA1]	–	–	does not target	600 ± 50 µM	530 ± 60 µM	> 100 µM	does not target	280 µM	150 ± 50 µM	100 ± 30 µM	121 µM	–	–
O=C1c2ccccc2C(=O)C1c1ccc(Br)cc1 [Bromindione, reference compound]	–	250 ± 0 µM	–	–	–	> 100 µM	–	–	–	–	–	–	Inhibition of MtVKOR in E. coli screening strain (control) ([2]; agar plates, HTS control): inhibits; IC50 (MtVKOR): 5 ± 0.73 µM; Ki (MtVKOR): 1 ± 0.09 µM; Inhibition of PaDsbB1 in E. coli screening strain (control) [5]: but not PaDsbB1
O=c1c(Cl)c(Cl)cnn1Cc1ccccc1Cl [compound 12, reference compound]	–	–	–	6 ± 1 µM	4.1 ± 0.6 µM	> 100 µM	–	229 µM	0.014 ± 0.0001 µM	0.005 ± 0.001 µM	8.6 µM	–	Ki (PaDsbB2): 4 ± 0.2 µM; Ki (PaDsbB1): 3 ± 0.2 µM; Inhibition of PaDsbB1 in E. coli screening strain (control) [5]: inhibits
Cn1c(=O)c([N+](=O)[O-])c(Cl)c2ccccc21 [PA3]	–	–	–	3 ± 0.11 µM	6 ± 0.6 µM	98 µM	inhibited	646 µM	–	13 ± 1.5 µM	9 µM	–	Ki (PaDsbB2): 7.5 ± 0.8 µM; Ki (PaDsbB1): 2.8 ± 0.2 µM
c1ccc(Nc2nc3nonc3nc2Nc2ccccc2)cc1 [MT7]	> 100 µM	41 ± 0 µM	inhibited	–	–	–	–	–	–	–	–	lower MICs	–
OC(CNCc1ccccc1)Cn1c2ccc(Cl)cc2c2cc(Cl)ccc21 (centres unmarked) [MT2]	> 100 µM	26.04 ± 9 µM	inhibited	–	–	–	–	–	–	–	–	lower MICs	Ki (MtVKOR; [8]): 4 ± 0.3 µM
N#CC(C#N)=NNc1ccccc1 [PA2]	–	–	–	83 ± 13 µM	83 ± 17 µM	98.3 µM	inhibited	> 100 µM	37.5 ± 5 µM	30 ± 7 µM	> 100 µM	–	–
O=C(Nc1ccccc1)c1cc(Cl)ccc1O [MT1]	> 100 µM	50.5 ± 0 µM	inhibited	–	–	–	–	–	–	–	–	lower MICs	–
